Tests used:
[1] = molecular target: T1, EIF2AK2 (PKR) catalytic domain (Homo sapiens, UniProt P19525); experiment: TR-FRET kinase assay, PKR; format: biochemical; conditions: 2.5 μM ATP, 45 min; read-out: Enzyme IC50 PKR
T1 construct: Recombinant human EIF2AK2 (PKR) catalytic domain (amino acids 252-551); purchased Invitrogen, Carlsbad, CA
T1 sequence (P19525 252-551): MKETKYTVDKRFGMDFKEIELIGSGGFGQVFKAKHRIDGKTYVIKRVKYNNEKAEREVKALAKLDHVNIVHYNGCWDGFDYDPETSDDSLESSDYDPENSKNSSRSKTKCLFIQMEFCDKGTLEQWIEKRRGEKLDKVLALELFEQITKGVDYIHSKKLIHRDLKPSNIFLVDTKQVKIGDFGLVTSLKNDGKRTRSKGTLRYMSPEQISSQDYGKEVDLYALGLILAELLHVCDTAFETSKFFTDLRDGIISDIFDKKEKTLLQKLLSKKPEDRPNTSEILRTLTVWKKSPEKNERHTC
Procedure: (§1) Recombinant human EIF2AK2 (PKR) catalytic domain (amino acids 252-551), EIF2AK3 (PERK) catalytic domain (amino acids 536-1116), GFP-eIF2α substrate, and Terbium-labelled phospho-eIF2a antibody is obtained (Invitrogen, Carlsbad, CA). Express and purify HIS-SUMO-GCN2 catalytic domain (amino acids 584-1019) from E. coli. Perform TR-FRET kinase assays in the absence or presence of inhibitors in a reaction buffer consisting of 50 mM HEPES, pH 7.5, 10 mM MgCl2, 1.0 mM EGTA, and 0.01% Brij-35, and 100-200 nM GFP-eIF2α substrate. […] Add test compound, initiate the reaction by addition of enzyme, and incubate at room temperature for 45 minutes. Stop the reaction by addition of EDTA to a final concentration of 10 mM, add Terbium-labelled phospho-eIF2α antibody at a final concentration of 2 nM, and incubate for 90 minutes. Monitor the resulting fluorescence in an EnVison® Multilabel reader (PerkinElmer, Waltham, MA). Determine TR-FRET ratios and the resulting IC50 values using a 4-parameter nonlinear logistic equation as shown: Y=(A+((B−A)/(1+((C/x)^D)))) where, Y=% specific inhibition, A=Bottom of the curve, B=Top of the curve, C=absolute IC50 (concentration causing 50% inhibition), and D=hill slope.

[2] = molecular target: T2, EIF2AK3 (PERK) catalytic domain (Homo sapiens, UniProt Q9NZJ5); experiment: In vitro inhibition of PERK enzyme activity (isolated), TR-FRET kinase assay; format: biochemical; conditions: 1.5 μM ATP, 45 min
T2 construct: EIF2AK3 (PERK) catalytic domain (amino acids 536-1116); purchased Invitrogen, Carlsbad, CA
T2 sequence (Q9NZJ5 536-1116): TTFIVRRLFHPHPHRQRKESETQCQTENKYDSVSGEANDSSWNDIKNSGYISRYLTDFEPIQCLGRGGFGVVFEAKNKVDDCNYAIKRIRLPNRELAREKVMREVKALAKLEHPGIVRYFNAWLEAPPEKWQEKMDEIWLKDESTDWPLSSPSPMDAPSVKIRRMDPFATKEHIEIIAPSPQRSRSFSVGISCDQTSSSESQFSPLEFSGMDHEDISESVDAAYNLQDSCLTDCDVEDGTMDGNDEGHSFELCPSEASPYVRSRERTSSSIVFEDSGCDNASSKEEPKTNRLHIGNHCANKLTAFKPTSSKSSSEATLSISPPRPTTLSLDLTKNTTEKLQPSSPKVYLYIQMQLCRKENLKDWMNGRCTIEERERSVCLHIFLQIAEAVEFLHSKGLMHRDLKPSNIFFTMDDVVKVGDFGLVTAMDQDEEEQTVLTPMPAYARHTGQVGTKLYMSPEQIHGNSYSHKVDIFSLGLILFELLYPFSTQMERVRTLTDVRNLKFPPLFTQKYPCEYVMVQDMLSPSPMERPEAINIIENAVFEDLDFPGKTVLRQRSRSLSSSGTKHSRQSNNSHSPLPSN
Procedure: as §1

[3] = tested on: BxPC-3 cells; experiment: In vivo inhibition of pancreatic cancer (mouse xenograft model); design: species or system female athymic nude mice
Procedure: Implant female athymic nude mice (Harlan Laboratories) subcutaneously with 5×10^6 BxPC-3 cells containing matrigel on the right flank and monitor tumor growth with calipers. Initiate compound dosing when tumors reach ˜250 mm^3 and dose mice twice per day by oral gavage (8 animals per group) for 28 days. Formulate compounds in 10% Acacia containing 0.05% anti-foam or 20% Captisol in 25 mM NaPO4 buffer pH […] the compounds of Examples 5 and 9, respectively. Treat control animals with Acacia vehicle alone. Estimate tumor volumes using the formula l×w^2×(π/6), where l is the larger measured diameter and w is the smaller perpendicular diameter. Calculate percent delta T/C using the formula 100×[(T−T0)/(C−C0)] and percent regression using the formula 100×[(T−T0)/T0], where T and C are mean tumor volumes in the treated and control groups, respectively. T0 and C0 are the corresponding baseline mean tumor volumes. Convert percent delta T/C to percent delta tumor growth inhibition (TGI) using the equation, 100−percent delta T/C. For statistical analysis, transform tumor volume data to log10 scale to equalize variance across time and treatment groups. Analyze the log10 volume data with a two-way repeated measures analysis of variance (Spatial Power correlation model) by time and treatment using the MIXED procedures in the SAS software package (Version 9.3). Compare treated groups to the control group at each time point.

[4] = molecular target: T3, PERK in GripTite 293 cells expressing GFP-eIF2α (Homo sapiens, UniProt Q9NZJ5); experiment: In vitro inhibition of PERK enzyme activity (whole cell), tunicamycin-induced phospho-eIF2α TR-FRET; format: cell-based; conditions: 1 h pre-treatment, Tunicamycin 1 μM 2 h
T3 construct: Add Tunicamycin (1 μM) to induce PERK activity; endogenous in cells; host or cells: GripTite 293 cells expressing GFP-eIF2α
T3 sequence (Q9NZJ5 30-1116): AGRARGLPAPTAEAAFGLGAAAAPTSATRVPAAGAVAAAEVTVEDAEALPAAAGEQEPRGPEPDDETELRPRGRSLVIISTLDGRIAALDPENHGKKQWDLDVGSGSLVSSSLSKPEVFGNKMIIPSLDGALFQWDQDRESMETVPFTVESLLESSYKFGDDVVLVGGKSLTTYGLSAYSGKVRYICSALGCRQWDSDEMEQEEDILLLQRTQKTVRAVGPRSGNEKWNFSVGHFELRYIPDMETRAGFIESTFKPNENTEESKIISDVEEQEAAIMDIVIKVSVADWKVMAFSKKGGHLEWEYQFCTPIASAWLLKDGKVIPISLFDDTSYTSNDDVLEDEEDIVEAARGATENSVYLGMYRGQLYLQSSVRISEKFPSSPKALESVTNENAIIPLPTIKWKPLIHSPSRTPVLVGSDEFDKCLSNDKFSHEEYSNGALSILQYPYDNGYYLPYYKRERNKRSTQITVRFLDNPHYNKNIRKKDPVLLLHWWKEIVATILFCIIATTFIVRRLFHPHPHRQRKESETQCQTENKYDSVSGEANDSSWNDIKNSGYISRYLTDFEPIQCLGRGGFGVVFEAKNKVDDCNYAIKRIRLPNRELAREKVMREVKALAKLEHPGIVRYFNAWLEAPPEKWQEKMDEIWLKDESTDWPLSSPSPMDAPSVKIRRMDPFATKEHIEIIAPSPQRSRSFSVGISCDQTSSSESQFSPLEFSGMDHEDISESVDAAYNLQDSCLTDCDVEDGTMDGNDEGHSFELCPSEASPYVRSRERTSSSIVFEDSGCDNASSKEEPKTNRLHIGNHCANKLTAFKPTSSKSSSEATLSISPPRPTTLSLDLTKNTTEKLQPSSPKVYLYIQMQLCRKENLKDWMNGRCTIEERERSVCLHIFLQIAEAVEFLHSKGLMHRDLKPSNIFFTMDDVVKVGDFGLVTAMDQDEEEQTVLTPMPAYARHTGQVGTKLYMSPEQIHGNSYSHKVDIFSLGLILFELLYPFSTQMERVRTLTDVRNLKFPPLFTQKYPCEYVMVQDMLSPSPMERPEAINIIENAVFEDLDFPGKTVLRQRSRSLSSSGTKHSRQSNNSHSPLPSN
Procedure: Seed GripTite™ 293 cells (Invitrogen, Carlsbad, CA) expressing GFP-eIF2α at 10,000 cells per well in 384-well plates and allow to attach overnight. Pre-treat cells with test compounds for 1 hour. Add Tunicamycin (1 μM) to induce PERK activity and incubate the plates at 37° C. for 2 hours. Remove the culture media and lyse the cells in buffer consisting of 20 mM Tris-HCl, pH 7.5, 150 mM NaCl, 5 mM EDTA, 1% NP-40, 5 mM NaF, Protease inhibitors (Sigma, St. Louis, MO), Phosphatase inhibitors (Sigma, St. Louis, MO), and 2 nM Terbium-labelled anti-phospho-eIF2 antibody (Invitrogen, Carlsbad, CA). Incubate the cell lysates for 2 hours in the dark at room temperature and monitor fluorescence in an EnVison® Multilabel reader (PerkinElmer, Waltham, MA). Determine TR-FRET ratios and the resulting IC50 values from the fitted inhibition curves using un-induced (100% inhibition) and induced (0% inhibition) wells as controls.

[5] = 30 mg/kg PO BID group, day 21 post-implant (before start of treatment)
[6] = 30 mg/kg PO BID group, day 24 post-implant (before start of treatment)
[7] = 30 mg/kg PO BID group, day 32 post-implant (before start of treatment)
[8] = 30 mg/kg PO BID group, day 35 post-implant (before start of treatment)
[9] = 30 mg/kg PO BID group, day 39 post-implant (before start of treatment)
[10] = 30 mg/kg PO BID group, day 47 post-implant (before start of treatment)
[11] = 30 mg/kg PO BID group, day 52 post-implant (day of randomization and start of treatment)
[12] = 30 mg/kg PO BID, day 60 post-implant
[13] = 30 mg/kg PO BID, day 67 post-implant
[14] = 30 mg/kg PO BID, day 72 post-implant
[15] = 30 mg/kg PO BID, day 74 post-implant
[16] = 30 mg/kg PO BID, day 76 post-implant
[17] = 30 mg/kg PO BID, day 79 post-implant

Row | Structure (SMILES) | IC50 [1] | IC50 [2] | Mean tumor volume [3, 5] | Mean tumor volume [3, 6] | Mean tumor volume [3, 7] | Mean tumor volume [3, 8] | Mean tumor volume [3, 9] | Mean tumor volume [3, 10] | Mean tumor volume [3, 11] | Mean tumor volume [3, 12] | T/C [3, 12] | TGI (Tumor Growth Inhibition) [3, 12] | Mean tumor volume [3, 13] | T/C [3, 13] | TGI (Tumor Growth Inhibition) [3, 13] | Mean tumor volume [3, 14] | T/C [3, 14] | TGI (Tumor Growth Inhibition) [3, 14] | Mean tumor volume [3, 15] | T/C [3, 15] | also measured
1 | Cc1cc(NC(=O)[C@H](O)c2cc(F)cc(F)c2)ccc1-c1cnc(N)c(C(=O)NC(C)C)c1 [Example 1, 2-amino-5-[4-[[(2R)-2-(3,5-difluorophenyl)-2-hydroxy-acetyl]amino]-2-methyl-phenyl]-N-isopropyl-pyridine-3-carboxamide] | > 20000 nM | 2.2 ± 1.2 nM |  |  |  |  |  |  |  |  |  |  |  |  |  |  |  |  |  |  | 
2 | CNC(=O)c1nc(-c2ccc(NC(=O)[C@H](O)c3cc(F)cc(F)c3)cc2C)cnc1N [Example 5, 3-amino-6-[4-[[(2R)-2-(3,5-difluorophenyl)-2-hydroxy-acetyl]amino]-2-methyl-phenyl]-N-methyl-pyrazine-2-carboxamide] | > 20000 nM |  | 123.9 mm^3 | 132.8 mm^3 | 143.4 mm^3 | 174.6 mm^3 | 183.8 mm^3 | 213.7 mm^3 | 252.0 mm^3 | 311.8 mm^3 | 71.5% | 28.5% | 387.8 mm^3 | 55.8% | 44.2% | 435.0 mm^3 | 52.7% | 47.3% | 487.5 mm^3 | 50.7% | TGI (Tumor Growth Inhibition) [3, 15]: 49.3%; Mean tumor volume [3, 16]: 528.8 mm^3; T/C [3, 16]: 54.5%; TGI (Tumor Growth Inhibition) [3, 16]: 45.5%; Mean tumor volume [3, 17]: 593.2 mm^3; T/C [3, 17]: 47.7%; TGI (Tumor Growth Inhibition) [3, 17]: 52.3%
3 | Cc1cc(NC(=O)[C@H](O)c2cccc(F)c2)ccc1-c1cn(C)c2ncnc(N)c12 [Example 9, (2R)—N-[4-(4-amino-7-methyl-pyrrolo[2,3-d]pyrimidin-5-yl)-3-methyl-phenyl]-2-(3-fluorophenyl)-2-hydroxy-acetamide] |  | 2.4 ± 1 nM | 111.9 mm^3 | 134.3 mm^3 | 153.7 mm^3 | 162.6 mm^3 | 167.1 mm^3 | 196.4 mm^3 | 244.2 mm^3 | 284.8 mm^3 | 40.8% | 59.2% | 317.2 mm^3 | 27.4% | 72.6% | 380.5 mm^3 | 37.3% | 62.7% | 418.3 mm^3 | 36.0% | TGI (Tumor Growth Inhibition) [3, 15]: 64.0%; Mean tumor volume [3, 16]: 480.4 mm^3; T/C [3, 16]: 45.1%; TGI (Tumor Growth Inhibition) [3, 16]: 54.9%; Mean tumor volume [3, 17]: 541.6 mm^3; T/C [3, 17]: 40.5%; TGI (Tumor Growth Inhibition) [3, 17]: 59.5%; IC50 [4]: 28 ± 11 nM
